One assay deals with Mu-type opioid receptor (Homo sapiens, UniProt P35372). The format is functional, cell-based.
Assay [1] addresses 5-hydroxytryptamine receptor 2A (Mus musculus, UniProt P35363). Format: functional, cell-based.
Assay [2] can be described thus: Luminescence Cell-Based Dose Response HTS to Identify Inhibitors of 5'UTR Stem-Loop Driven Prion Protein mRNA Translation in H4 Neuroglioblastoma Cells. [Related pubchem assays: 1827 (Project Summary), 1813 (Primary HTS)]. Format: functional.
The nature of assay [3]: luciferase reporter signal suppression in cells – H4 neuroglioma cells, luminescence, dose response (AID 1990). Format: functional, cell-based. For orientation: Reporter assays use an easily measured gene product as a stand-in for the process of interest.
The nature of assay [4]: alpha-synuclein stem-loop luciferase translation blockers – H4 neuroglioma cells, luminescence, confirmation (AID 1988). The format is functional, cell-based.
Assay [5] addresses T1, Corticotropin-releasing factor receptor 2/Corticotropin-releasing factor-binding protein (Homo sapiens, UniProt P24387+Q13324).
T1 sequence (Q13324 whole entry): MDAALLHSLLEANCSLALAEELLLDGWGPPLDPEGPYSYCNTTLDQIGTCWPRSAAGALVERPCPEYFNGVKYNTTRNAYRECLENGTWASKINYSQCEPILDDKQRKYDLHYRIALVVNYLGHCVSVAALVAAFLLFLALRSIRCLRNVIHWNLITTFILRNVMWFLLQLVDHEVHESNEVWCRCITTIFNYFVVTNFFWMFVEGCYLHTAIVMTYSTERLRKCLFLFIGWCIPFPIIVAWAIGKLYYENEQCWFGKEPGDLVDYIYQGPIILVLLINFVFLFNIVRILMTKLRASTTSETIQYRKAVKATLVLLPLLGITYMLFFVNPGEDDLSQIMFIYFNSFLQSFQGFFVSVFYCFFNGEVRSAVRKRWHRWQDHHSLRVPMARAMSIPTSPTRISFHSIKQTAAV
T1 sequence (P24387 whole entry): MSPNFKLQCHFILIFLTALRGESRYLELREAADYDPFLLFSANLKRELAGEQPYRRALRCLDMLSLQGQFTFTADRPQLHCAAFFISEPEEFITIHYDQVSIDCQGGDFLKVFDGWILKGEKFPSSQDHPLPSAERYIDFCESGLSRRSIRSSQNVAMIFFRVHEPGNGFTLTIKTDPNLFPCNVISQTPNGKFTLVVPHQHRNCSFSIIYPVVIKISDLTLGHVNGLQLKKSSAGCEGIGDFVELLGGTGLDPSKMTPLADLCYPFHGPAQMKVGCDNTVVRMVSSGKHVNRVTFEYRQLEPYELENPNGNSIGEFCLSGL
Kind of assay: activators of CRF receptor 2 with binding protein – uHTS hits, confirmation (AID 602473). The conditions noted are these: read-out: EC50_Mean. Format: functional.

Assay [6] is described as follows: viability loss in CEM21 cells – cell-based, CellTiter-Glo luminescence, cherry-picked, cytotoxicity control for viral fusion inhibitor project, dose response (AID 652042).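 Also: potency for signal decrease meaning cytotoxicity.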 Format: functional. (In general: In ATP-based viability assays light output follows the ATP content of the culture.)
A short description of assay [7]: HIV-1 AD8 envelope cell-cell fusion blockers – cherry-pick, dose response (AID 652062).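 Also: luciferase signal from cell-cell fusion driven by HIV-1 clade B AD8 Env; potency is for inhibitors of fusion seen as a drop in luminescence.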 The format is functional, cell-based.
For assay [8], the target named is T1, Corticotropin-releasing factor receptor 2/Corticotropin-releasing factor-binding protein. In words: Dose Response confirmation of uHTS hits for small molecule antagonists of the CRF-binding protein and CRF-R2 receptor complex. Format: functional. The conditions noted are these: read-out: IC50_Mean.
A further assay has as its target T2, Protein RecA (Mycobacterium tuberculosis, UniProt P9WHJ3).
T2 sequence (P9WHJ3 whole entry): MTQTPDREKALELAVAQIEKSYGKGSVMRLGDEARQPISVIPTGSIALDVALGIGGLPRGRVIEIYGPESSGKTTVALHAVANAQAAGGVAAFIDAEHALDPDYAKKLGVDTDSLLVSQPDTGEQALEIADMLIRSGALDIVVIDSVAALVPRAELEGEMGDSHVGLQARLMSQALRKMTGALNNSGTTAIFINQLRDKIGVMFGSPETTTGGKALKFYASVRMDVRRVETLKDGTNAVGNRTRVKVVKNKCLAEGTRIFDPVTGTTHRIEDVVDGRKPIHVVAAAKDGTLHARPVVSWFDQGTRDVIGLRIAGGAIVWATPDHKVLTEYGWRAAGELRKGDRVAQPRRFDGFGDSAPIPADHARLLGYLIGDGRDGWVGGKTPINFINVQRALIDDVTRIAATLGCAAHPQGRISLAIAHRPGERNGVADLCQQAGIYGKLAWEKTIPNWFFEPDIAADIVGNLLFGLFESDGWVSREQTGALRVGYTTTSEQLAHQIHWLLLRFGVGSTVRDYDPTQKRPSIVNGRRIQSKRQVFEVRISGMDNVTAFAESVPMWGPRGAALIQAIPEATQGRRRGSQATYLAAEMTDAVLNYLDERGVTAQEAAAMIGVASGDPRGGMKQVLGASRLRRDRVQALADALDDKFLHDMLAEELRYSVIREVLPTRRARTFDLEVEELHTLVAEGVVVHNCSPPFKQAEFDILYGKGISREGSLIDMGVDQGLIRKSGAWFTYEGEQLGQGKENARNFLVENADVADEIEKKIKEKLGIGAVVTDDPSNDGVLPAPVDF
Kind of assay: Fluorescence Cell-Free Homogeneous Dose Retest to Identify Inhibitors of RecA-Intein Splicing Activity. [Related pubchem assays (depositor defined):AID2097, AID2223, AID489010, AID492950]. The format is functional.

Assay [9] has as its target T3, Replicative DNA helicase DnaB (Mycobacterium tuberculosis, UniProt P9WMR3).
T3 sequence (P9WMR3 whole entry): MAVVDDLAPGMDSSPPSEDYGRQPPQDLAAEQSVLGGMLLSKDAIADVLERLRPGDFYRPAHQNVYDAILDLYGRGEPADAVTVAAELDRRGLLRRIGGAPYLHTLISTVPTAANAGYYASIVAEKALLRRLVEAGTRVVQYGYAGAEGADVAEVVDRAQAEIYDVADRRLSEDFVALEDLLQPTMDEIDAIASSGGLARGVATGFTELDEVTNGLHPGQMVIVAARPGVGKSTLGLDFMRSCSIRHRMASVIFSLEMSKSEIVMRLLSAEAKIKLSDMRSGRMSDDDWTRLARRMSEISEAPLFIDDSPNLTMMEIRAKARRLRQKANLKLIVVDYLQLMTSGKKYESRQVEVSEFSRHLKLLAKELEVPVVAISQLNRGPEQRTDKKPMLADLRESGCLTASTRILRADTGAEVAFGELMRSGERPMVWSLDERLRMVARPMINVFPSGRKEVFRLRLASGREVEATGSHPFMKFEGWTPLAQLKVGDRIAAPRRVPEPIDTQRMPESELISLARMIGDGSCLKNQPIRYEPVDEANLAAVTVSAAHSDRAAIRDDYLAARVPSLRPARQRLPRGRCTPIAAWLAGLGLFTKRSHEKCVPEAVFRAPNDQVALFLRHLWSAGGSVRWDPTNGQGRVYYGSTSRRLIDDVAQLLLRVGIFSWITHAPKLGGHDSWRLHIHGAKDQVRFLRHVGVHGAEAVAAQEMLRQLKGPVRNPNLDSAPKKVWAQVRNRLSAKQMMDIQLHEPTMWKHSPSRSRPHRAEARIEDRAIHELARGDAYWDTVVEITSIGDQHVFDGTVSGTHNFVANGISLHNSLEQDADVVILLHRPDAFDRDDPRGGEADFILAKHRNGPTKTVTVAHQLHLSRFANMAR
In words: DnaB intein splicing inhibitors, dose response, biochemical, cell-free fluorescence (AID 449749). Format: functional.

Assay [10] concerns the target T4, Probable nicotinate-nucleotide adenylyltransferase (Staphylococcus aureus (strain N315), UniProt P65502). Format: functional, Staphylococcus aureus subsp. aureus N315. The conditions noted are these: read-out: IC50_Mean.
The target of assay [11] is T4, Probable nicotinate-nucleotide adenylyltransferase. The format is functional, Staphylococcus aureus subsp. aureus N315.
The nature of assay [12]: intracellular Trypanosoma cruzi inhibitors in host cells – cell-based, plate reader, cherry-pick samples, set 3, dose response (AID 651818).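 Also: compounds incubated with infected cells for about four days.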 The format is functional.
The nature of assay [13]: blockers of HIV-1 envelope-mediated cell-cell fusion – cherry-pick, dose response (AID 652057). The format is functional, cell-based.
Assay [14] can be described thus: blockers of HIV-1 ZM109 envelope-driven cell-cell fusion – HeLa effector, CEM target cells, luciferase, cherry-pick, dose response (AID 652058).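 Also: luciferase signal from HIV-1 Env mediated cell-cell fusion of effector and target cells.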 The format is functional, cell-based.
Assay [15] can be described thus: off-target signal loss in HeLa-CEM21 co-culture – HeLa F-luc CTL cells, cherry-picked, counter-screen for HIV-1 Env fusion inhibitor project, dose response (AID 652040).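 Also: potency for signal decrease marking cytotoxic or nonspecific inhibition.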 Format: functional, cell-based.

Each structure is given as a SMILES string. Calls of active or inactive are those of the source.

As usually defined, the AC50 is the midpoint of the concentration-response curve, whichever way the signal moves.

Sequence of Mu-type opioid receptor (P35372 whole entry): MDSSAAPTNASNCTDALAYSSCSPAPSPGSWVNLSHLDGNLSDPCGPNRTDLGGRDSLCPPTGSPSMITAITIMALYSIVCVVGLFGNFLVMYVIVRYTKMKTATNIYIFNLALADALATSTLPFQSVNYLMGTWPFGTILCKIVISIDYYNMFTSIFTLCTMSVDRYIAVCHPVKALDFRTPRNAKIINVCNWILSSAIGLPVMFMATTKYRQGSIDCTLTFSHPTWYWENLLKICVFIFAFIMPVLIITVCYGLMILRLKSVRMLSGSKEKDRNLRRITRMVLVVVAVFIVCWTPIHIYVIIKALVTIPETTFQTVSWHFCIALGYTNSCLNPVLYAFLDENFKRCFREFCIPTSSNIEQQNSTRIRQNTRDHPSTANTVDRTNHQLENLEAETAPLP
Sequence of 5-hydroxytryptamine receptor 2A (P35363 whole entry): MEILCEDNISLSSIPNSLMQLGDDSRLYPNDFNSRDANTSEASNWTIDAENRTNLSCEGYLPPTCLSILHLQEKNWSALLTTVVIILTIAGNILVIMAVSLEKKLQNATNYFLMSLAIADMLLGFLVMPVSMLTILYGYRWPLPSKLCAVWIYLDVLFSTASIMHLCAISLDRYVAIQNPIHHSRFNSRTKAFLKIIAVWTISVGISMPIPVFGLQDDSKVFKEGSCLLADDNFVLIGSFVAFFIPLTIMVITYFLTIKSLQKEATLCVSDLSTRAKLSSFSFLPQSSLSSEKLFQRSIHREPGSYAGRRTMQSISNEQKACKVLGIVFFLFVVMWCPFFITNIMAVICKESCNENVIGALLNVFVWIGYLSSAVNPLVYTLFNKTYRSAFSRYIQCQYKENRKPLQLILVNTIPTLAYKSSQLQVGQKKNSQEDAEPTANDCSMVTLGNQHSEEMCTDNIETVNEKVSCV
T4 sequence (P65502 whole entry): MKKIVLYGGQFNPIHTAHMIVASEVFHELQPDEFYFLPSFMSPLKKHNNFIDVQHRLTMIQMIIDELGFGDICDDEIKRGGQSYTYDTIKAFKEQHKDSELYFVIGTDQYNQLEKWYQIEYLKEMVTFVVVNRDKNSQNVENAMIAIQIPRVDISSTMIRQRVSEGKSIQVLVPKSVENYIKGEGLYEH

With `O=S(=O)(c1ccc(OCC(O)CN2CCN(c3ccccc3)CC2)cc1)N1CCOCC1` (stereo unspecified), the EC50 at Mu-type opioid receptor was 92.4 µM (inactive); in [1], 0.481 µM (active).
Take `CN(C)S(=O)(=O)c1ccc(Cl)c(NC(=O)CN2CCc3ccccc3C2)c1`: the EC50 on Mu-type opioid receptor is 92.5 µM (inactive); in assay [1] it was 1.75 µM (active).
For `COC(=O)c1ccc(C(=O)NC2CCCc3c2cnn3-c2ccc(C)c(C)c2)cc1` (stereo unspecified), the EC50 is > 120 µM (not active) in [2], 8.89 µM (inconclusive) in assay [3], 0.997 µM (active) in assay [4] and > 53 µM (inactive) in assay [5]. Besides, the AC50 was 19.4 µM (active) in assay [6] and 18.9 µM (active) in [7]. In assay [8], the IC50 was > 47.1 µM (inactive).
On to `O=C(NCCN1CCN(c2ccccc2F)CC1)C1CCCN(S(=O)(=O)c2c[nH]cn2)C1` (stereo unspecified), for which the values for the EC50 (on Mu-type opioid receptor; in assay [1]) were 92.5 µM (inactive) and 0.895 µM (active), respectively.
Regarding `O=C(Cc1cc(O)[nH]n1)N/N=C/C=C/c1ccccc1`, the EC50 on Protein RecA was 2.76 µM (active). The AC50 in assay [9] is 3.17 µM (active). In addition, the results for the IC50 in assay [10] and in [11] were 23.5 µM (active) and 7.45 µM (active), respectively.
For the compound `C[C@@H]1CN([C@@H](C)CO)C(=O)c2cccc(NS(=O)(=O)c3ccc(F)cc3)c2O[C@@H]1CN(C)Cc1ccc(-c2ccccc2)cc1`, the half-maximal activity concentration (AC50) is 3.81 µM (active) in [12], 22.4 µM (active) in [13], 48.1 µM (active) in [6] and 26.5 µM (active) in assay [14].
On to `COC(=O)[C@@]12C[C@@H](CC(=O)NCc3cccc(C(F)(F)F)c3)C(=O)N(Cc3ccco3)C1=CCC(C)(C)C2`, for which the AC50 in assay [13] was 4.26 µM (active); in [6], 50 µM (active); in assay [7] it was 20.9 µM (active); in assay [15], 8.92 µM (active); in [14], 8.24 µM (active).

The values are drawn from ChEMBL document CHEMBL1201862, “PubChem BioAssay data set” (2004).
